From US8247211B2, “Glycopeptide antibiotics” (American Cyanamid Company, priority 2001, dated 2012)
Converted amounts (≈) assume the structure as drawn.

Columns and labels:
[1] = system: Staphylococcus aureus-SMITH (GC 4543); experiment: Acute lethal infection in mice (ED50); assay type: in vivo; conditions: female CD-1 mice, intraperitoneal challenge, intravenous dose 30 min. after infection, 7 day survival ratios
Summary of the method: (§1)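 Groups of five female CD-1 mice per dose got intravenous antibiotic in saline or 5% dextrose half an hour after intraperitoneal infection sufficient to kill controls within 24-48 hr. Seven-day survival data from three experiments were combined to derive ED50.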

[2] = system: Enterococcus faecalis (GC 6189), vancomycin resistant strain; experiment: Acute lethal infection in mice (ED50); assay type: in vivo; conditions: female CD-1 mice, intraperitoneal challenge, intravenous dose 30 min. after infection, 7 day survival ratios
Summary of the method: as §1

[3] = system: Escherichia coli; experiment: In vitro antibacterial evaluation: minimum inhibitory concentration (MIC), broth dilution method; assay type: cell-based; conditions: 5×10^5 CFU/mL, 18 hours at 35° C.
Summary of the method: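 Values are minimum inhibitory concentrations, meaning the smallest antibiotic concentration that stops growth of the organism. They come from broth dilution in Muller-Hinton II […] per NCCLS guidance (M7-A2), using 5×10^5 CFU/mL and concentrations from 64 to 0.06 μg/mL.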

[4] = system: Streptococcus sp.; experiment: as above; assay type: cell-based; conditions: broth dilution, 5×10^5 CFU/mL, 18 hours at 35° C.
Summary of the method: (§2)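 An MIC is reported for each organism as the least concentration giving inhibition, using broth dilution over 64-0.06 μg/mL with a 5×10^5 CFU/mL inoculum.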

[5] = system: Enterococcus sp.; experiment: as above; assay type: cell-based; conditions: broth dilution, 5×10^5 CFU/mL, 18 hours at 35° C.
Summary of the method: as §2

[6] = system: Staphylococcus sp.; experiment: as above; assay type: cell-based; conditions: for MIC Staphylococcus aureus (ATCC 29213): strain ATCC 29213; for MIC Staphylococcus aureus (GC 1131): strain GC 1131; for MIC Staphylococcus aureus (GC 3051): strain GC 3051; for MIC Staphylococcus aureus (GC 3053): strain GC 3053; for MIC Staphylococcus aureus (GC 4541): strain GC 4541; for MIC Staphylococcus aureus (GC 4542): strain GC 4542; for MIC Staphylococcus aureus-SMITH (GC 4543): strain GC 4543; for MIC Staphylococcus aureus (GC 4544): strain GC 4544; for MIC Staphylococcus aureus (GC 4545): strain GC 4545; for MIC Staphylococcus haemolyticus (GC 4546): strain GC 4546; for MIC Coagulase Negative Staphylococcus (GC 4547): strain GC 4547; for MIC Coagulase Negative Staphylococcus (GC 4548): strain GC 4548; for MIC Coagulase Negative Staphylococcus (GC 4549): strain GC 4549; for MIC Coagulase Negative Staphylococcus (GC 4551): strain GC 4551; for MIC Coagulase Negative Staphylococcus (GC 6257): strain GC 6257
Summary of the method: as §2

[7] = broth dilution, 18 hours at 35° C.

## CC(c1ccccc1)C1NC(=O)CNC(=O)C(CO)NC(=O)C(C(O)C2CNC(=N)N2C2OC(CO)C(O)C(O)C2O)NC(=O)C(C(O)C2CNC(=N)N2)NC(=O)C(Cc2ccc(OC3OC(CO)C(OC4OC5COC(C6CC=CCC6)OC5C(O)C4O)C(O)C3O)cc2)NC1=O (stereo not drawn) [Example 115, Cyclo[glycyl-β-methylphenylalanyl-O-[4-O-[4,6-O-(cyclohex-3-en-1-ylmethylene)hexopyranosyl]hexopyranosyl]tyrosyl-3-(2-iminoimidazolidin-4-yl)seryl-3-(3-hexopyranosyl-2-iminoimidazolidin-4-yl)serylseryl]]
[1]
  median effective dose (ED50), Staphylococcus aureus-SMITH (GC 4543): 0.23 mg/kg
[2]
  median effective dose (ED50), Enterococcus faecalis (GC 6189): 0.36 mg/kg
[3]
  MIC Escherichia coli (ATCC 25922): 32 µg/mL (≈ 23.1 µM)
  MIC Escherichia coli (GC 4559): 64 µg/mL (≈ 46.1 µM)
  MIC Escherichia coli (GC 4560): 1 µg/mL (≈ 0.721 µM)
[4]
  MIC Streptococcus agalactiae (GC 4564): 0.25 µg/mL (≈ 0.18 µM)
  MIC Streptococcus pneumoniae (GC 1894): <0.06 µg/mL
  MIC Streptococcus pneumoniae (GC 4565): 0.12 µg/mL (≈ 0.0865 µM)
  MIC Streptococcus pneumonine (ATCC 6301): <0.06 µg/mL
  MIC Streptococcus pyogenes (GC 4563): 0.25 µg/mL (≈ 0.18 µM)
[5]
  MIC Enterococccus avium (GC 4558): 2 µg/mL (≈ 1.44 µM)
  MIC Enterococccus faecalis (ATCC 29212): 2 µg/mL (≈ 1.44 µM)
  MIC Enterococccus faecalis (GC 2691): 2 µg/mL (≈ 1.44 µM)
  MIC Enterococccus faecalis (GC 3059): 2 µg/mL (≈ 1.44 µM)
  MIC Enterococccus faecalis (GC 4552): 2 µg/mL (≈ 1.44 µM)
  MIC Enterococccus faecalis (GC 4553): 4 µg/mL (≈ 2.88 µM)
  MIC Enterococccus faecalis (GC 4554): 2 µg/mL (≈ 1.44 µM)
  MIC Enterococccus faecalis (GC 6189): 2 µg/mL (≈ 1.44 µM)
  MIC Enterococccus faecium (GC 2243): 2 µg/mL (≈ 1.44 µM)
  MIC Enterococccus faecium (GC 4556): 2 µg/mL (≈ 1.44 µM)
  MIC Enterococccus faecium (GC 4557): 2 µg/mL (≈ 1.44 µM)
  MIC Enterococcus faecalis (GC 2242): 2 µg/mL (≈ 1.44 µM)
[6]
  MIC Staphylococcus aureus (ATCC 29213): 1 µg/mL (≈ 0.721 µM)
  MIC Staphylococcus aureus (GC 1131): 1 µg/mL (≈ 0.721 µM)
  MIC Staphylococcus aureus (GC 3051): 1 µg/mL (≈ 0.721 µM)
  MIC Staphylococcus aureus (GC 3053): 1 µg/mL (≈ 0.721 µM)
  MIC Staphylococcus aureus (GC 4541): 1 µg/mL (≈ 0.721 µM)
  MIC Staphylococcus aureus (GC 4542): 0.5 µg/mL (≈ 0.36 µM)
  MIC Staphylococcus aureus (GC 4544): 1 µg/mL (≈ 0.721 µM)
  MIC Staphylococcus aureus (GC 4545): 0.5 µg/mL (≈ 0.36 µM)
  MIC Staphylococcus haemolyticus (GC 4546): 0.5 µg/mL (≈ 0.36 µM)
  MIC Coagulase Negative Staphylococcus (GC 4547): 1 µg/mL (≈ 0.721 µM)
  MIC Coagulase Negative Staphylococcus (GC 4548): 0.5 µg/mL (≈ 0.36 µM)
  MIC Coagulase Negative Staphylococcus (GC 4549): 1 µg/mL (≈ 0.721 µM)
  MIC Coagulase Negative Staphylococcus (GC 4551): 1 µg/mL (≈ 0.721 µM)
  MIC Coagulase Negative Staphylococcus (GC 6257): 0.5 µg/mL (≈ 0.36 µM)
[6]; [7]
  MIC Staphylococcus aureus (ATCC 29213): 1 µg/mL (≈ 0.721 µM)
  MIC Staphylococcus aureus (GC 1131): 1 µg/mL (≈ 0.721 µM)
  MIC Staphylococcus aureus (GC 3051): 1 µg/mL (≈ 0.721 µM)
  MIC Staphylococcus aureus (GC 3053): 1 µg/mL (≈ 0.721 µM)
  MIC Staphylococcus aureus (GC 4541): 1 µg/mL (≈ 0.721 µM)
  MIC Staphylococcus aureus (GC 4542): 0.5 µg/mL (≈ 0.36 µM)
  MIC Staphylococcus aureus-SMITH (GC 4543): 1 µg/mL (≈ 0.721 µM)
  MIC Staphylococcus aureus (GC 4544): 1 µg/mL (≈ 0.721 µM)
  MIC Staphylococcus aureus (GC 4545): 0.5 µg/mL (≈ 0.36 µM)
  MIC Staphylococcus haemolyticus (GC 4546): 0.5 µg/mL (≈ 0.36 µM)
  MIC Coagulase Negative Staphylococcus (GC 4547): 1 µg/mL (≈ 0.721 µM)
  MIC Coagulase Negative Staphylococcus (GC 4548): 0.5 µg/mL (≈ 0.36 µM)
  MIC Coagulase Negative Staphylococcus (GC 4549): 1 µg/mL (≈ 0.721 µM)
  MIC Coagulase Negative Staphylococcus (GC 4551): 1 µg/mL (≈ 0.721 µM)
  MIC Coagulase Negative Staphylococcus (GC 6257): 0.5 µg/mL (≈ 0.36 µM)
[6]; 18 hours at 35° C.
  MIC Staphylococcus aureus-SMITH (GC 4543): 1 µg/mL (≈ 0.721 µM)

## Cc1ccc(CC2OCC3OC(OC4C(CO)OC(Oc5ccc(CC6NC(=O)C(C(C)c7ccccc7)NC(=O)CNC(=O)C(CO)NC(=O)C(C(O)C7CNC(=N)N7C7OC(CO)C(O)C(O)C7O)NC(=O)C(C(O)C7CNC(=N)N7)NC6=O)cc5)C(O)C4O)C(O)C(O)C3O2)cc1 (stereo not drawn) [Example 119, Cyclo[glycyl-β-methylphenylalanyl-O-[4-O-[4,6-O-(4-methylphenethylidene)hexopyranosyl]-hexopyranosyl]tyrosyl-3-(2-iminoimidazolidin-4-yl)seryl-3-(3-hexopyranosyl-2-iminoimidazolidin-4-yl)serylseryl]]
[1]
  median effective dose (ED50), Staphylococcus aureus-SMITH (GC 4543): 0.19 mg/kg
[2]
  median effective dose (ED50), Enterococcus faecalis (GC 6189): 0.41 mg/kg
[3]
  MIC Escherichia coli (ATCC 25922): 32 µg/mL (≈ 22.7 µM)
  MIC Escherichia coli (GC 4559): 32 µg/mL (≈ 22.7 µM)
  MIC Escherichia coli (GC 4560): 1 µg/mL (≈ 0.708 µM)
[4]
  MIC Streptococcus agalactiae (GC 4564): <0.5 µg/mL
  MIC Streptococcus pneumoniae (GC 1894): <0.5 µg/mL
  MIC Streptococcus pneumoniae (GC 4565): 1 µg/mL (≈ 0.708 µM)
  MIC Streptococcus pneumonine (ATCC 6301): <0.5 µg/mL
  MIC Streptococcus pyogenes (GC 4563): <0.5 µg/mL
[5]
  MIC Enterococccus avium (GC 4558): 4 µg/mL (≈ 2.83 µM)
  MIC Enterococccus faecalis (ATCC 29212): 2 µg/mL (≈ 1.42 µM)
  MIC Enterococccus faecalis (GC 2691): 2 µg/mL (≈ 1.42 µM)
  MIC Enterococccus faecalis (GC 3059): >64 µg/mL
  MIC Enterococccus faecalis (GC 4552): 2 µg/mL (≈ 1.42 µM)
  MIC Enterococccus faecalis (GC 4553): 4 µg/mL (≈ 2.83 µM)
  MIC Enterococccus faecalis (GC 4554): 2 µg/mL (≈ 1.42 µM)
  MIC Enterococccus faecalis (GC 6189): 2 µg/mL (≈ 1.42 µM)
  MIC Enterococccus faecium (GC 2243): 4 µg/mL (≈ 2.83 µM)
  MIC Enterococccus faecium (GC 4556): 2 µg/mL (≈ 1.42 µM)
  MIC Enterococccus faecium (GC 4557): 1 µg/mL (≈ 0.708 µM)
  MIC Enterococcus faecalis (GC 2242): 2 µg/mL (≈ 1.42 µM)
[6]
  MIC Staphylococcus aureus (ATCC 29213): 1 µg/mL (≈ 0.708 µM)
  MIC Staphylococcus aureus (GC 1131): 1 µg/mL (≈ 0.708 µM)
  MIC Staphylococcus aureus (GC 3051): 1 µg/mL (≈ 0.708 µM)
  MIC Staphylococcus aureus (GC 3053): 2 µg/mL (≈ 1.42 µM)
  MIC Staphylococcus aureus (GC 4541): 1 µg/mL (≈ 0.708 µM)
  MIC Staphylococcus aureus (GC 4542): 1 µg/mL (≈ 0.708 µM)
  MIC Staphylococcus aureus (GC 4544): 1 µg/mL (≈ 0.708 µM)
  MIC Staphylococcus aureus (GC 4545): 1 µg/mL (≈ 0.708 µM)
  MIC Staphylococcus haemolyticus (GC 4546): 1 µg/mL (≈ 0.708 µM)
  MIC Coagulase Negative Staphylococcus (GC 4547): 1 µg/mL (≈ 0.708 µM)
  MIC Coagulase Negative Staphylococcus (GC 4548): 1 µg/mL (≈ 0.708 µM)
  MIC Coagulase Negative Staphylococcus (GC 4549): 1 µg/mL (≈ 0.708 µM)
  MIC Coagulase Negative Staphylococcus (GC 4551): 1 µg/mL (≈ 0.708 µM)
  MIC Coagulase Negative Staphylococcus (GC 6257): <0.5 µg/mL
[6]; [7]
  MIC Staphylococcus aureus (ATCC 29213): 1 µg/mL (≈ 0.708 µM)
  MIC Staphylococcus aureus (GC 1131): 1 µg/mL (≈ 0.708 µM)
  MIC Staphylococcus aureus (GC 3051): 1 µg/mL (≈ 0.708 µM)
  MIC Staphylococcus aureus (GC 3053): 2 µg/mL (≈ 1.42 µM)
  MIC Staphylococcus aureus (GC 4541): 1 µg/mL (≈ 0.708 µM)
  MIC Staphylococcus aureus (GC 4542): 1 µg/mL (≈ 0.708 µM)
  MIC Staphylococcus aureus-SMITH (GC 4543): 1 µg/mL (≈ 0.708 µM)
  MIC Staphylococcus aureus (GC 4544): 1 µg/mL (≈ 0.708 µM)
  MIC Staphylococcus aureus (GC 4545): 1 µg/mL (≈ 0.708 µM)
  MIC Staphylococcus haemolyticus (GC 4546): 1 µg/mL (≈ 0.708 µM)
  MIC Coagulase Negative Staphylococcus (GC 4547): 1 µg/mL (≈ 0.708 µM)
  MIC Coagulase Negative Staphylococcus (GC 4548): 1 µg/mL (≈ 0.708 µM)
  MIC Coagulase Negative Staphylococcus (GC 4549): 1 µg/mL (≈ 0.708 µM)
  MIC Coagulase Negative Staphylococcus (GC 4551): 1 µg/mL (≈ 0.708 µM)
  MIC Coagulase Negative Staphylococcus (GC 6257): <0.5 µg/mL
[6]; 18 hours at 35° C.
  MIC Staphylococcus aureus-SMITH (GC 4543): 1 µg/mL (≈ 0.708 µM)
